Data: ChEMBL document CHEMBL4619766, “Eudesmacarbonate, a Eudesmane-Type Sesquiterpene from a Marine Filamentous Cyanobacterial Mat (Oscillatoriales) in the Florida Keys” (J Nat Prod, 2020)

Assays:
[1] = Toxicity in 4 to 5 hpf stage wild type zebrafish AB embryo assessed as induction of bradycardia at 4.5 to 22 nM under 14 hrs light and 10 hrs dark condition and measured at 3 dpf stage by microscopic analysis; set-up: species or system Danio rerio; conditions: in vivo, 0.022 µM
[2] = Neurotoxicity in 4 to 5 hpf stage wild type zebrafish AB embryo assessed as irregular inflated swim bladder at 4.5 to 22 nM under 14 hrs light and 10 hrs dark condition and measured at 5 dpf stage by microscopic analysis; format: toxicity, Danio rerio; conditions: in vivo, 0.022 µM
[3] = Neurotoxicity in 4 to 5 hpf stage wild type zebrafish AB embryo assessed as induction of head butting at 4.5 to 22 nM under 14 hrs light and 10 hrs dark condition and measured at 5 dpf stage by microscopic analysis; format: toxicity, Danio rerio; conditions: in vivo, 0.022 µM
[4] = Neurotoxicity in 4 to 5 hpf stage wild type zebrafish AB embryo assessed as induction of motor incoordination at 4.5 to 22 nM under 14 hrs light and 10 hrs dark condition and measured at 5 dpf stage by microscopic analysis; format: toxicity, Danio rerio; conditions: in vivo, 0.022 µM
[5] = Neurotoxicity in 4 to 5 hpf stage wild type zebrafish AB embryo assessed as effect on spasms at 4.5 to 22 nM under 14 hrs light and 10 hrs dark condition and measured at 5 dpf stage by microscopic analysis; format: toxicity, Danio rerio; conditions: in vivo, 0.022 µM
[6] = Neurotoxicity in 4 to 5 hpf stage wild type zebrafish AB embryo assessed as reduction in spontaneous coiling frequency at 4.5 to 22 nM under 14 hrs light and 10 hrs dark condition and measured at 24 hpf stage by microscopic analysis; format: toxicity, Danio rerio; conditions: in vivo, 0.022 µM
[7] = Neurotoxicity in 4 to 5 hpf stage wild type zebrafish AB embryo assessed as effect on spontaneous coiling frequency at >= 38 uM under 14 hrs light and 10 hrs dark condition and measured at 24 hpf stage by microscopic analysis; format: toxicity, Danio rerio; conditions: in vivo
[8] = Toxicity in 4 to 5 hpf stage wild type zebrafish AB embryo assessed as effect on heart rate at 9.4 to 94 uM under 14 hrs light and 10 hrs dark condition and measured at 3 dpf stage by microscopic analysis; set-up: species or system Danio rerio; conditions: in vivo
[9] = Neurotoxicity in 4 to 5 hpf stage wild type zebrafish AB embryo assessed as irregular inflated swim bladder at 9.4 to 94 uM under 14 hrs light and 10 hrs dark condition and measured at 5 dpf stage by microscopic analysis; format: toxicity, Danio rerio; conditions: in vivo
[10] = Neurotoxicity in 4 to 5 hpf stage wild type zebrafish AB embryo assessed as irregular development of swim bladder dysfunction at 9.4 to 94 uM under 14 hrs light and 10 hrs dark condition and measured at 5 dpf stage by microscopic analysis; format: toxicity, Danio rerio; conditions: in vivo
[11] = Neurotoxicity in 4 to 5 hpf stage wild type zebrafish AB embryo assessed as induction of head butting at 9.4 to 94 uM under 14 hrs light and 10 hrs dark condition and measured at 5 dpf stage by microscopic analysis; format: toxicity, Danio rerio; conditions: in vivo
[12] = Neurotoxicity in 4 to 5 hpf stage wild type zebrafish AB embryo assessed as induction of motor incoordination at 9.4 to 94 uM under 14 hrs light and 10 hrs dark condition and measured at 5 dpf stage by microscopic analysis; format: toxicity, Danio rerio; conditions: in vivo
[13] = Neurotoxicity in 4 to 5 hpf stage wild type zebrafish AB embryo assessed as effect on spasms at 9.4 to 94 uM under 14 hrs light and 10 hrs dark condition and measured at 5 dpf stage by microscopic analysis; format: toxicity, Danio rerio; conditions: in vivo
[14] = Neurotoxicity in 7 dpf stage zebra fish PSA larvae assessed induction of larval immobilization at 110 to 190 uM measured within 45 mins; format: toxicity, Danio rerio; conditions: zebrafish, 0.75 h
[15] = Neurotoxicity in 7 dpf stage zebra fish PSA larvae assessed induction of larval immobilization at 38 uM measured over 90 mins; format: toxicity, Danio rerio; conditions: zebrafish, 1.5 h
Danio rerio [16] = species: Danio rerio; assay: Induction of larval immobilization in 7 dpf stage zebra fish PSA assessed as immobilization recovery level at 110 uM incubated for 90 mins followed by medium replacement and measured within 10 mins relative to control; format: toxicity, organism-based; conditions: zebrafish, in vivo, 1.5 h
Danio rerio [17] = species: Danio rerio; assay: Induction of larval immobilization in 7 dpf stage zebra fish PSA assessed as immobilization recovery level at 190 uM incubated for 90 mins followed by medium replacement and measured within 10 mins relative to control; format: toxicity, organism-based; conditions: zebrafish, in vivo, 1.5 h

Row | Compound | Activity [1] | Activity [2] | Activity [3] | Activity [4] | Activity [5] | Activity [6] | Activity [7] | Activity [8] | Activity [9] | Activity [10] | Activity [11] | Activity [12] | Activity [13] | Activity [14] | Activity [15] | Activity (Danio rerio [16]) | Activity (Danio rerio [17])
1 | C=C(C=O)C[C@@H]1C[C@H](O)[C@]2(C)O[C@@H]3C[C@@H]4O[C@@H]5C[C@]6(C)O[C@]7(C)CC[C@@H]8O[C@@H]9C[C@]%10(C)O[C@@H]%11C(C)=CC(=O)O[C@H]%11C[C@H]%10O[C@H]9C[C@@H](C)[C@H]8O[C@H]7C[C@H]6O[C@@]5(C)C/C=C\[C@H]4O[C@H]3C[C@H]2O1 [BREVETOXIN B] | Toxic | Toxic | Toxic | Toxic | Toxic | Non-Toxic | – | – | – | – | – | – | – | – | – | – | –
2 | CC(C)[C@@H]1CC[C@]2(C)CCC[C@]3(C)OC(=O)O[C@H]1[C@@H]23 | – | – | – | – | – | – | Toxic | Toxic | Toxic | Toxic | Toxic | Toxic | Toxic | Toxic | Non-Toxic | 87% | 47%
